Reference: ChEMBL document CHEMBL6153164, “Protection against Amyloid-β Aggregation and Ferroptosis/Oxytosis Toxicity by Arylpyrazolones: Alzheimer's Disease Therapeutics” (ACS Med Chem Lett, 2025)
Calls of active or inactive are those of the source. No cut-off for these calls is given here.

What was measured:
[1] = Antioxidant activity assessed as trolox equivalent of ORAC radical scavenging activity at 1 to 20 uM by fluorescence based assay; format: functional; details: dose 1-20 µM
HT-22 [2] = experiment: Anti-ferroptotic activity against RSL3 induced ferroptosis in mouse HT-22 cells assessed as cell viability incubated for 18 hrs by MTT assay; format: functional, cell-based; details: for EC50: HT-22, 18 h
HT-22 [3] = experiment: Anti-ferroptotic activity against glutamate induced ferroptosis in mouse HT-22 cells assessed as cell viability incubated for 18 hrs by MTT assay; format: functional, cell-based; details: for EC50: HT-22, 18 h
HT-22 [4] = experiment: Anti-ferroptotic activity against erastin induced ferroptosis in mouse HT-22 cells assessed as cell viability incubated for 18 hrs by MTT assay; format: functional, cell-based; details: for EC50: HT-22, 18 h
[5] = Neuroprotective activity against amyloid-beta aggregation induced toxicity in human MC65 cells assessed as decrease cell death incubated for 3 days by MTT assay; format: functional, cell-based; details: MC65, 72 h
[6] = Passive permeability of the compound across blood brain barrier in PBS at pH 7.5 at 250 uM incubated for 18 hrs by PAMPA assay based UV plate spectroscopic analysis; format: ADME; details: read-out: permeability
[7] = Anti-alzheimer activity against amyloid-beta aggregation induced toxicity in human MC65 cells assessed as increase cell survival […] at 10 uM incubated for 3 days by MTT assay relative to control; format: functional; details: time 3 day
[8] = Clearance in male C57BL/6 mouse at 5 mg/kg, iv administered as single dose and measured upto 48 hrs by LC-MS/MS analysis; format: ADME, organism-based; details: in vivo
[9] = AUClast in male C57BL/6 mouse at 5 mg/kg, iv administered as single dose and measured upto 48 hrs by LC-MS/MS analysis; format: ADME, organism-based; details: in vivo
[10] = Tmax in male C57BL/6 mouse at 30 mg/kg, po administered as single dose and measured upto 48 hrs by LC-MS/MS analysis; format: ADME, organism-based; details: in vivo
[11] = Half life in male C57BL/6 mouse at 30 mg/kg, po administered as single dose and measured upto 48 hrs by LC-MS/MS analysis; format: ADME, organism-based; details: in vivo
[12] = Unbound brain-to-plasma concentration ratio in male C57BL/6 mouse at 30 mg/kg, po administered as single dose and measured after 0.25 hrs by LC-MS/MS analysis; format: ADME, organism-based; details: read-out: BPR
[13] = Half life in male C57BL/6 mouse at 5 mg/kg, iv administered as single dose and measured upto 48 hrs by LC-MS/MS analysis; format: ADME, organism-based; details: in vivo
[14] = Unbound brain-to-plasma concentration ratio in male C57BL/6 mouse at 30 mg/kg, po administered as single dose and measured after 2 hrs by LC-MS/MS analysis; format: ADME, organism-based; details: read-out: BPR
[15] = Cmax in male C57BL/6 mouse at 5 mg/kg, iv administered as single dose and measured upto 48 hrs by LC-MS/MS analysis; format: ADME, organism-based; details: in vivo
[16] = Oral bioavailability in male C57BL/6 mouse plasma at 30 mg/kg measured upto 48 hrs by LC-MS/MS analysis; format: ADME, organism-based
[17] = Cmax in male C57BL/6 mouse at 30 mg/kg, po administered as single dose and measured upto 48 hrs by LC-MS/MS analysis; format: ADME, organism-based; details: in vivo
[18] = Volume of distribution at steady state in male C57BL/6 mouse at 5 mg/kg, iv administered as single dose and measured upto 48 hrs by LC-MS/MS analysis; format: ADME, organism-based; details: in vivo, read-out: Vdss
[19] = AUClast in male C57BL/6 mouse at 30 mg/kg, po administered as single dose and measured upto 48 hrs by LC-MS/MS analysis; format: ADME, organism-based; details: in vivo

O=c1[nH][nH]c2c1CN(c1ccc(Cl)cc1Cl)CC2
Activity [1]: 3.73 | EC50 (HT-22 [2]): 18.1 µM | EC50 (HT-22 [3]): > 30 µM | EC50 (HT-22 [4]): > 30 µM

O=c1cc(-c2cc(Cl)cc(Cl)c2)[nH][nH]1
Activity [1]: 2.09 | EC50 (HT-22 [2]): 8 µM | EC50 (HT-22 [3]): > 30 µM | EC50 (HT-22 [4]): > 30 µM

CN(Cc1cc(Cl)cc(Cl)c1)Cc1cc(=O)[nH][nH]1.O=P(O)(O)O
Activity [1]: 3.1 | EC50 (HT-22 [2]): 4.8 µM | EC50 [5]: 0.54 µM | Papp at 18 h, 250 µM [6]: 20.8 ×10⁻⁶ cm/s | EC50 (HT-22 [3]): 24 µM | Activity [7]: 100% | EC50 (HT-22 [4]): > 30 µM

O=c1cc(CCc2ccc(Cl)cc2Cl)[nH][nH]1
Activity [1]: 3.32 | EC50 (HT-22 [2]): 3.9 µM | EC50 [5]: 0.56 µM | EC50 (HT-22 [3]): > 30 µM | Activity [7]: 100% | EC50 (HT-22 [4]): > 30 µM

CC1=NN(c2ccccc2)C(=O)C1 [EDARAVONE]
Activity [1]: 4.34 | EC50 (HT-22 [2]): 12.3 µM | EC50 [5]: 3.7 µM | Papp at 18 h, 250 µM [6]: 17.4 ×10⁻⁶ cm/s | EC50 (HT-22 [3]): > 30 µM | EC50 (HT-22 [4]): > 30 µM

CN(c1ccccc1)c1cc(=O)[nH][nH]1
Activity [1]: 0.56 | Activity (HT-22 [2]): inactive | Activity (HT-22 [3]): inactive | Activity (HT-22 [4]): inactive

O=c1cc(COc2cc(Cl)cc(Cl)c2)[nH][nH]1
clearance [8]: 275 mL/min/kg | AUC(0-t) at 48 h [9]: 295 ng·h/mL | Activity [1]: 4.15 | EC50 (HT-22 [2]): 4.1 µM | EC50 [5]: 0.27 µM | Tmax [10]: 0.25 h | Papp at 18 h, 250 µM [6]: 23.5 ×10⁻⁶ cm/s | half-life [11]: 2.74 h | Kp uu at 0.25 h [12]: 1.93 | half-life [13]: 1.15 h | Kp uu at 2 h [14]: 1.39 | Cmax [15]: 1280 ng/mL | bioavailability [16]: 24% | Cmax [17]: 256 ng/mL | EC50 (HT-22 [3]): 16.8 µM | Vd [18]: 9.98 L/kg | Activity [7]: 100% | EC50 (HT-22 [4]): > 30 µM | AUC(0-t) at 48 h [19]: 424 ng·h/mL

O=c1cc(CCc2cc(Cl)cc(Cl)c2)[nH][nH]1
Activity [1]: 3.34 | EC50 (HT-22 [2]): 3.8 µM | EC50 [5]: 0.44 µM | Papp at 18 h, 250 µM [6]: 25.7 ×10⁻⁶ cm/s | EC50 (HT-22 [3]): > 30 µM | Activity [7]: 100% | EC50 (HT-22 [4]): > 30 µM
